We go through 3 compounds from patent US8680259B2, “Method and compositions for the identification of agents that have a potential effect against chronic inflammatory diseases” (Universität Leipzig, priority 2010, dated 2014).

For experiment [1], the target named is GPRC6A (Mus musculus, UniProt Q8K4Z6). The conditions noted are these: wild type mice; Aluminum Lactate 0.3 mg/100 ml with Carrageenan 1 g/100 ml vs Carrageenan alone; p<0.001.
Experiment [2] concerns primary CD14+ monocytes. As to the kind of experiment: IL-1β production of monocytes stimulated with increased extracellular Ca2+ plus TLR ligand. It is filed as cell-based, human. The protocol:
FIGS. 3c and 3d show IL-1β release of primary CD14^+ monocytes in response to increasing extracellular calcium concentration alone (c) or to increased [Ca^2+] in combination with LPS (100 ng/ml) (d) after 16 h of stimulation. The bar underneath the x axis represents the physiological range of the extracellular ionized Ca^2+ concentration (1.2 mM).
The following TLR ligands (human TLR1-9 Agonist Kit, InvivoGen) were used at the following concentrations: TLR1/2 agonist—Pam3CSK4 (1 μg/ml), TLR2 agonist—heat-killed preparation of Listeria monocytogenes (10^8 cells/ml), TLR3 agonist—Poly(I:C) (10 μg/ml), TLR4 agonist—E. coli K12 LPS (100 ng/ml), TLR5 agonist—S. typhimurium flagellin (1 μg/ml), TLR6/2 agonist—FSL1 (1 μg/ml), TLR7 agonist—Imiquimod (1 μg/ml), TLR8 agonist—ssRNA40 (1 μg/ml) and TLR9 agonist—CpG ODN2006 (5 μM). […]
In all experiments shown in FIGS. 3 and 4, IL-1β concentrations were determined in the supernatant by ELISA.
Human and murine IL-1β were measured by commercially available enzyme-immunoassay following the manufacturer's protocol. […]
LPS (Escherichia coli 0111:B4 ultrapure, 100 ng/ml, Invivogen) was used at a concentration of 100 ng/ml. […] Final Ca^2+ ion concentrations in the media were measured after anaerobic sampling (sealed blood gas syringes were completely filled under an CO2 atmosphere, and were closed with caps to avoid loss of CO2) on an ABL 730 (Radiometer). […]

Chain of GPRC6A (Q8K4Z6 21-928): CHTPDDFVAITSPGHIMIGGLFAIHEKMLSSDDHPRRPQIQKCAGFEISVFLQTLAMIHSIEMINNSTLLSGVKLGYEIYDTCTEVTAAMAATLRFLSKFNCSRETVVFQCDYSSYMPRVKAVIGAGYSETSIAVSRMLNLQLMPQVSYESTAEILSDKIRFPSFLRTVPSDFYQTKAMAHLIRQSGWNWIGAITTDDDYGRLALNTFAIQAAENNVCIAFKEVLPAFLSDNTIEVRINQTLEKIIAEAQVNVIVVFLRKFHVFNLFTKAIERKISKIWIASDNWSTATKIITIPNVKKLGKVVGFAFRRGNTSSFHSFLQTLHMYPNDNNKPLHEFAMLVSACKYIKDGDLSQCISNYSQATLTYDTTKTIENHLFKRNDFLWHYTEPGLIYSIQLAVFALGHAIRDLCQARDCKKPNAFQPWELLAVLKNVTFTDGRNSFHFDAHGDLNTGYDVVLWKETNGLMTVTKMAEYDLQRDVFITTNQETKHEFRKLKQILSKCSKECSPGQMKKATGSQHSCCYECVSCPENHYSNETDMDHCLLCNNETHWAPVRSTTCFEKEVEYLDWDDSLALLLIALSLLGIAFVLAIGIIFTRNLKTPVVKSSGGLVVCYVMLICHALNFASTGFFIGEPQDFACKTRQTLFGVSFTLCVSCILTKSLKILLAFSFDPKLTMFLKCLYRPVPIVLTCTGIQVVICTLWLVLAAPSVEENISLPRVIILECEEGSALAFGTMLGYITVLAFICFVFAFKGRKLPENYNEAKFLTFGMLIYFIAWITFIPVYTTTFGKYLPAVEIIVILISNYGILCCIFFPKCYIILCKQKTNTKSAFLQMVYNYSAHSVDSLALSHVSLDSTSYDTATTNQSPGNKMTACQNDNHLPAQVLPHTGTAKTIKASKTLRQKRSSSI

Consider Aluminum Lactate, for which the footpad swelling result in experiment [1] is “amplification of Carrageenan induced footpad swelling”.
Turning to `[Ca+2].[Cl-].[Cl-]` [Ca^2+, CaCl2], the “IL-1β production, factor of increase in comparison to endotoxin (LPS) alone” value in experiment [2] (extracellular ionized Ca2+ in combination with LPS) came out at 20.
On to “Tenascin: endogenous TLR ligand, extracellular matrix glycoprotein; Tenascin-C from Millipore”, for which the IL-1β production result in experiment [2] (endogenous TLR ligand in combination with increased extracellular Ca2+ concentrations) is on record as “comparable to the Ca^2+ plus LPS induced levels”.
